Measured values from article PMC9127750, “Structure-based design of CDC42 effector interaction inhibitors for the treatment of cancer” (Cell reports, 2022).
Values joined by “and” are separate entries in the source; they are usually repeats but may differ in a detail not shown here. Equal values may be shown once.

Tested on: WM3248 melanoma cells, 486 antibodies
Experiment: Reverse phase protein arrays (RPPA);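 on CA9.R.C RPPA level: ratio of treated to vehicle (0 µM) normalized linear protein signal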;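 on CD171.M.V RPPA level: ratio of treated to vehicle (0 µM) normalized linear protein signal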;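 on CREB pS133.R.C RPPA level: ratio of treated to vehicle (0 µM) normalized linear protein signal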;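 on Cyclin.B1.R.V RPPA level: ratio of treated to vehicle (0 µM) normalized linear protein signal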
Type: cell-based, Human
Settings: 5 uM
Source text: Pellets were snap frozen in liquid nitrogen and shipped to MD Anderson Cancer Center core RPPA facility for RPPA analysis (Table S5). Three biological replicates for each sample were generated.
Nomenclatures on the RPPA heatmaps: name_of_antibody.species_of_antibody.status_of_antibody. V - antibody validated; C - validation of antibody in progress; Q - antibody nonspecific; E – under evaluation; antibodies raised in M - mouse, G - goat, R - rabbit, or T - rat.

CN(C)c1cccc(Nc2cc(-c3ccccc3)nc(C3CCNCC3)n2)c1 [ARN22089, N1,N1-dimethyl-N3-(6-phenyl-2-(piperidin-4-yl)pyrimidin-4-yl)benzene-1,3-diamine]
RPPA signal, antibody Vinculin.M.V (individual replicates): 0.948 and 1.034 and 1.010
RPPA signal, antibody WIPI1.R.C (individual replicates): 1.016 and 0.609
RPPA signal, antibody WIPI2.R.C (individual replicates): 0.917 and 1.190 and 1.151
RPPA signal, antibody WTAP.R.V (individual replicates): 1.007 and 0.770 and 0.970
RPPA signal, antibody Wee1.R.C (individual replicates): 0.852 and 1.576 and 1.161
RPPA signal, antibody Wee1_pS642.R.C (individual replicates): 0.857 and 1.327 and 1.158
RPPA signal, antibody XBP.1.G.C (individual replicates): 1.019 and 0.701
RPPA signal, antibody XIAP.R.C (individual replicates): 1.016 and 1.128
RPPA signal, antibody XPA.M.V (individual replicates): 1.083 and 0.917 and 1.035
RPPA signal, antibody XPF.R.C (individual replicates): 0.939 and 1.048
RPPA signal, antibody XRCC1.R.C (individual replicates): 1.023 and 0.932 and 0.869
RPPA signal, antibody YAP.R.C (individual replicates): 1.026 and 0.858 and 1.131
RPPA signal, antibody YAP_pS127.R.V (individual replicates): 0.924 and 0.808 and 1.102
RPPA signal, antibody YB1_pS102.R.V (individual replicates): 0.854 and 0.995
RPPA signal, antibody YES1.R.V (individual replicates): 1.034 and 0.913 and 0.948
RPPA signal, antibody YTHDF2.R.V (individual replicates): 1.139 and 0.982 and 0.641
RPPA signal, antibody YTHDF3.R.C (individual replicates): 0.920 and 0.753
RPPA signal, antibody ZAP.70.R.V (individual replicates): 0.901 and 1.193
RPPA signal, antibody ZEB1.R.V (individual replicates): 0.874 and 1.035
C.Raf.R.C RPPA level (replicates): 0.877 and 1.136
C.Raf_pS338.R.V RPPA level (replicates): 1.205
CA9.R.C RPPA level (replicates): 0.982 and 0.948 and 1.015
CD2.M.C RPPA level (replicates): 1.000 and 0.961 and 1.133
CD4.R.V RPPA level (replicates): 0.886 and 1.117
CD5.M.C RPPA level (replicates): 1.034 and 0.973
CD20.R.C RPPA level (replicates): 1.057 and 0.829 and 0.477
CD26.R.V RPPA level (replicates): 0.893 and 1.128 and 0.797
CD29.M.V RPPA level (replicates): 0.991 and 0.954 and 1.138
CD31.M.V RPPA level (replicates): 1.000 and 0.925 and 1.157
CD38.R.C RPPA level (replicates): 0.963 and 1.191 and 1.116
CD44.R.C RPPA level (replicates): 0.984 and 0.955 and 0.823
CD45.M.V RPPA level (replicates): 1.027 and 0.978 and 1.076
CD49b.M.V RPPA level (replicates): 1.059 and 0.901 and 0.919
CD68.M.C RPPA level (replicates): 1.053 and 0.950 and 1.032
CD74.M.V RPPA level (replicates): 0.953
CD134.R.V RPPA level (replicates): 1.004 and 0.980 and 1.076
CD171.M.V RPPA level (replicates): 0.646 and 0.896 and 0.990
CDK1_pT14.R.C RPPA level (replicates): 0.964 and 1.128
CDK9.R.V RPPA level (replicates): 1.046 and 0.940 and 0.953
CDKN2A.R.C RPPA level (replicates): 1.033 and 0.974 and 1.120
CDT1.R.V RPPA level (replicates): 1.009 and 1.034
CENP.A.R.V RPPA level (replicates): 1.061 and 0.838 and 0.961
CIITA.R.C RPPA level (replicates): 0.973 and 0.944 and 0.768
COG3.R.V RPPA level (replicates): 1.020 and 1.162 and 1.108
CRABP1.R.C RPPA level (replicates): 1.003 and 1.061
CRABP2.R.V RPPA level (replicates): 1.206 and 0.955 and 0.945
CREB_pS133.R.C RPPA level (replicates): 0.945 and 1.492 and 0.936
CSK.R.C RPPA level (replicates): 1.015 and 1.119 and 0.620
Calnexin.R.V RPPA level (replicates): 0.967 and 1.097
Caspase.3.cleaved.R.C RPPA level (replicates): 0.926 and 1.159
Caspase.7.cleaved..R.C RPPA level (replicates): 0.858 and 1.158
Caspase.8.M.Q RPPA level (replicates): 1.096 and 0.944
Caspase.8.cleaved.R.C RPPA level (replicates): 0.924 and 1.111 and 1.128
Caveolin.1.R.V RPPA level (replicates): 0.498 and 0.935 and 1.046
Cdc6.R.V RPPA level (replicates): 0.936
Cdc42.R.C RPPA level (replicates): 0.966 and 1.031
Chk1.M.C RPPA level (replicates): 1.078 and 0.961
Chk1_pS296.R.V RPPA level (replicates): 0.982 and 1.154 and 1.114
Chk1_pS345.R.C RPPA level (replicates): 1.000 and 1.084 and 0.861
Chk2.M.V RPPA level (replicates): 1.157 and 0.671
Chk2_pT68.R.C RPPA level (replicates): 0.939 and 1.327 and 1.189
Claudin.7.R.V RPPA level (replicates): 1.057 and 0.909 and 0.755
Collagen.VI.R.V RPPA level (replicates): 1.076 and 0.844 and 1.257
Complex.II.Subunit.M.V RPPA level (replicates): 1.008 and 1.014 and 0.777
Connexin.43.R.C RPPA level (replicates): 1.009 and 1.236
Coup.TFII.R.C RPPA level (replicates): 0.833 and 1.226
Cox2.R.C RPPA level (replicates): 1.024 and 0.895 and 1.250
Cox.IV.R.V RPPA level (replicates): 0.999 and 1.060 and 1.025
Creb.R.C RPPA level (replicates): 1.026 and 1.133 and 1.082
CtIP.R.V RPPA level (replicates): 0.829 and 1.057 and 0.997
Cyclin.B1.R.V RPPA level (replicates): 1.136 and 0.725 and 1.229
Cyclin.D1.R.C RPPA level (replicates): 1.048 and 0.891 and 1.065
Cyclin.D3.M.V RPPA level (replicates): 1.309 and 1.005 and 0.824
Cyclin.E1.R.V RPPA level (replicates): 1.096 and 0.925 and 0.965
Cyclophilin.F.M.V RPPA level (replicates): 0.978 and 1.019 and 0.727
D.a.Tubulin.R.V RPPA level (replicates): 0.975 and 1.193
DAPK1_pS308.M.C RPPA level (replicates): 1.267 and 0.870 and 0.330
DAPK2.R.C RPPA level (replicates): 0.970 and 1.126 and 1.124
DDB.1.R.V RPPA level (replicates): 0.890 and 0.958 and 1.524
DDR1.R.V RPPA level (replicates): 1.024 and 0.829 and 1.002
DDR1_pY513.R.C RPPA level (replicates): 1.024 and 0.961 and 1.078
DJ1.R.V RPPA level (replicates): 1.007 and 1.125
DM.Histone.H3.R.V RPPA level (replicates): 0.950 and 1.152 and 1.117
DM.K9.Histone.H3.M.V RPPA level (replicates): 1.035 and 0.996
DNA.Ligase.IV.R.C RPPA level (replicates): 1.015 and 1.171 and 1.125
DNA_POLG.R.V RPPA level (replicates): 1.082 and 0.866 and 0.834
c.Jun_pS73.R.V RPPA level (replicates): 0.903 and 1.005
c.Kit.R.V RPPA level (replicates): 1.119 and 0.884 and 0.682
c.Met_pY1234_Y1235.R.V RPPA level (replicates): 0.935 and 1.110 and 1.140
c.Myc.R.C RPPA level (replicates): 1.016 and 0.996 and 1.017
cGAS.R.V RPPA level (replicates): 1.013 and 0.955
cdc2_pY15.R.C RPPA level (replicates): 0.982 and 1.425 and 1.193
cdc25C.R.V RPPA level (replicates): 0.985 and 0.925 and 0.943
RPPA MYH11.R.C (single replicates): 1.049 and 0.899 and 0.794
RPPA Myosin.IIa.R.C (single replicates): 0.881 and 0.604
RPPA Myosin.IIa_pS1943.R.V (single replicates): 1.019 and 0.869 and 0.642
RPPA Myt1.R.C (single replicates): 0.900
RPPA N.Cadherin.R.V (single replicates): 1.025 and 0.927 and 1.105
RPPA N.Ras.M.V (single replicates): 1.017 and 0.997
RPPA NAPSIN.A.R.C (single replicates): 0.989 and 1.114 and 1.136
RPPA NDRG1_pT346.R.V (single replicates): 0.757 and 1.000 and 1.113
RPPA NDUFB4.R.V (single replicates): 1.030 and 0.897
RPPA NRF2.R.C (single replicates): 0.980 and 1.023 and 1.172
RPPA Notch1.R.V (single replicates): 0.979 and 0.930
RPPA Notch1.cleaved.R.V (single replicates): 0.872 and 1.026
RPPA Notch3.R.C (single replicates): 0.916 and 1.149
RPPA Oct.4.R.C (single replicates): 1.033 and 1.165 and 1.085
RPPA P.Cadherin.R.C (single replicates): 0.913 and 1.419 and 0.819
RPPA PAI.1.M.V (single replicates): 0.893 and 0.953 and 1.083
RPPA PAICS.R.C (single replicates): 1.002 and 0.988 and 0.707
RPPA PAK1.R.V (single replicates): 1.101
RPPA PAK4.R.V (single replicates): 0.901 and 0.983
RPPA PAK_pS474_S602_S560.R.V (single replicates): 1.077 and 0.883 and 0.855
RPPA PAK_pT423_T402.R.C (single replicates): 0.941 and 1.054 and 0.768
RPPA PAR.R.C (single replicates): 1.057 and 2.014 and 0.910
RPPA PARG.R.C (single replicates): 0.916 and 0.961 and 1.160
RPPA PARP.R.V (single replicates): 0.918 and 1.359 and 0.791
RPPA PAX6.R.V (single replicates): 0.958 and 1.096
RPPA PAX8.R.C (single replicates): 1.084 and 0.915 and 0.888
RPPA PCNA.M.C (single replicates): 0.983 and 0.768
RPPA PD.1.R.V (single replicates): 1.028 and 0.932 and 1.016
RPPA PD.L1.R.C (single replicates): 0.986 and 1.136
RPPA PDH.M.V (single replicates): 1.030 and 0.955 and 1.162
RPPA PDHA1.R.V (single replicates): 0.999 and 1.134 and 1.104
RPPA PDHK1.R.C (single replicates): 0.895 and 1.143 and 1.132
RPPA PDK1.R.V (single replicates): 0.979 and 1.236 and 0.914
RPPA PDK1_pS241.R.V (single replicates): 1.012 and 1.286 and 1.116
RPPA PEA.15.R.V (single replicates): 0.973 and 1.022 and 0.716
RPPA PEA.15_pS116.R.V (single replicates): 1.025 and 1.082
RPPA PERK.R.V (single replicates): 0.799 and 0.886
RPPA PGM1.R.V (single replicates): 0.922
RPPA PHGDH.R.C (single replicates): 1.026 and 1.054 and 1.162
RPPA PHLPP.R.V (single replicates): 1.309 and 0.725 and 0.733
RPPA PI3K.p85.R.C (single replicates): 0.979
RPPA PI3K.p110.a.R.C (single replicates): 0.889 and 1.115 and 1.166
RPPA PI3K.p110.b.M.C (single replicates): 1.076 and 0.970 and 0.893
RPPA PKA.a.R.V (single replicates): 1.082 and 0.998 and 0.958
RPPA PKC.a.b.II_pT638_T641.R.V (single replicates): 0.773 and 0.933
RPPA PKC.b.II_pS660.R.V (single replicates): 0.932 and 1.415 and 1.139
RPPA PKCa.R.V (single replicates): 0.879 and 2.309 and 1.199
RPPA PKM2.R.C (single replicates): 0.777
RPPA PLC.gamma1.R.V (single replicates): 1.266 and 0.848 and 0.796
RPPA PLC.gamma1_pS1248.R.V (single replicates): 1.131 and 1.203 and 0.848
RPPA PLC.gamma2_pY759.R.V (single replicates): 0.953
RPPA PLK1.R.C (single replicates): 0.988 and 0.536 and 1.237
RPPA PMS2.R.V (single replicates): 1.054 and 0.898 and 0.867
RPPA PR.R.V (single replicates): 1.016 and 0.968 and 1.112
RPPA PRAS40.M.C (single replicates): 1.006 and 0.977 and 0.990
RPPA PRAS40_pT246.R.V (single replicates): 0.957 and 1.288 and 0.838
RPPA PRC1_pT481.R.C (single replicates): 0.841 and 0.955
RPPA PREX1.R.V (single replicates): 0.972 and 0.995 and 1.201
RPPA PTEN.R.V (single replicates): 0.880 and 1.147
RPPA PTPN12.R.V (single replicates): 1.009 and 1.217 and 1.054
RPPA PYGB.R.V (single replicates): 0.990 and 0.966 and 0.675
RPPA PYGM.M.C (single replicates): 1.013 and 0.953 and 0.526
RPPA Patched.R.C (single replicates): 0.925 and 1.120 and 1.169
RPPA Paxillin.R.C (single replicates): 0.754 and 1.008 and 1.170
RPPA Pdcd4.R.C (single replicates): 0.973 and 1.288 and 1.207
RPPA Porin.M.V (single replicates): 1.021 and 0.963 and 0.824
RPPA Puma.R.C (single replicates): 1.003 and 0.771
RPPA Pyk2_pY402.R.C (single replicates): 0.977 and 1.146 and 1.149
RPPA RBM15.R.V (single replicates): 0.950 and 1.004 and 0.982
